The source of these data is article PMC6291527, “A Nanostructured Lipid System to Improve the Oral Bioavailability of Ruthenium(II) Complexes for the Treatment of Infections Caused by Mycobacterium tuberculosis” (Frontiers in Microbiology, 2018).

Test [1] deals with M. tuberculosis H37Rv ATCC 27294. The test is described as follows: Resazurin Microtiter Assay (REMA), MIC90 against M. tuberculosis H37Rv. To be noted: for MIC90 DMSO: complex solubilized in DMSO, mean ± SD; for Standard MIC Pre-determined: repeats Table 2 values, mean ± SD of three assays. Background: The colour change of resazurin is a common sign of viable cells or microbes.

The test system of test [2] is mouse macrophages (J774A.1). The test is described as follows: In vitro cytotoxic activity (resazurin) in macrophages. The class given is cell-based. To be noted: complex solubilized in DMSO; J774A.1 macrophages, 24 h. How it is done:
The cytotoxicity of the complexes solubilized in DMSO and loaded into the NLS was measured in mouse macrophages (J774A.1 ATCCb TIB-67) as described by [Pavan et al. (2010a)]. The cells were incubated at 37°C with 5% CO2 on plates with a surface area of 12.50 cm^2 in 10 ml RPMI (Vitrocell®, Campinas, SP, Brazil) supplemented with 10% fetal bovine serum, gentamicin sulfate (50 mg l^-1) and amphotericin B (2 mg l^-1). This technique consists of collecting the cells using a scraper, centrifuging (2000 rpm for 5 min), counting the number of cells in a Newbauer chamber, and then adjusting the concentration to 3.4 × 10^5 cells ml^-1 in RPMI. Next, 200 μl suspension was deposited into each well of a 96-well microplate and incubated at 37°C in an atmosphere of 5% CO2 for 24 h to allow the cells to attach to the plate. Dilutions of the test compounds were prepared to obtain concentrations from 500 to 1.95 μg ml^-1. […] The cytotoxicity of the compounds was determined by adding 30 μl developer of resazurin and read after a 6-h incubation. The reading was performed in a microplate Cytation 3 (Biotek®, Winooski, VT, United States) reader using excitation and emission filters at wavelengths of 530 and 590 nm, respectively. The cytotoxicity (IC50) was defined as the highest concentration of compound inhibiting the growth of at least 50% of the cells and was obtained from non-linear regression using GraphPad Prism 7.0 for Windows.

Marks after values point to notes of the source that are not given here.

For the molecule [Ru(pic)(dppb)(bipy)]PF6 [SCAR1], in test [1], the “MIC90 DMSO” value was 1.18 ± 0.08^a μg mL^-1 and the “Standard MIC Pre-determined” value was found to be 1.18 ± 0.08 µg/mL. Besides, the “IC50 DMSO” value in test [2] is 22.26 ± 1.85^a μg mL^-1.
[Ru(pic)(dppb)(phen)]PF6 [SCAR4]: in test [1], the “MIC90 DMSO” value is 1.34 ± 0.08^a μg mL^-1 and the “Standard MIC Pre-determined” value is 1.34 ± 0.08 µg/mL. Moreover, the “IC50 DMSO” value in test [2] was 7.57 ± 0.13^a μg mL^-1.
In the case of `Cc1ccnc(-c2cc(C)ccn2)c1.F[P-](F)(F)(F)(F)F.O=C([O-])c1ccccn1.[Ru+2].c1ccc(P(CCCCP(c2ccccc2)c2ccccc2)c2ccccc2)cc1` [SCAR2, [Ru(pic)(dppb)(Me-bipy)]PF6], in test [1], the “MIC90 DMSO” value is on record as 1.08 ± 0.12^a μg mL^-1 and the “Standard MIC Pre-determined” value came out at 1.08 ± 0.12 µg/mL. In addition, the “IC50 DMSO” value in test [2] is 6.51 ± 0.67^a μg mL^-1.
For `F[P-](F)(F)(F)(F)F.O=C([O-])c1ccccn1.[Ru+2].c1ccc(P(CCP(c2ccccc2)c2ccccc2)c2ccccc2)cc1.c1ccc(P(CCP(c2ccccc2)c2ccccc2)c2ccccc2)cc1` [SCAR5, cis-[Ru(pic)(dppe)2]PF6], in test [1], the “MIC90 DMSO” value is given as 1.32 ± 0.03^a μg mL^-1 and the “Standard MIC Pre-determined” value worked out at 1.32 ± 0.03 µg/mL. Moreover, the “IC50 DMSO” value in test [2] was 3.88 ± 0.98^a μg mL^-1.
For [Ru(pic)(dppe)(phen)]PF6 [SCAR7] the same measures were 0.98 ± 0.05^a μg mL^-1, 0.98 ± 0.05 µg/mL and 14.36 ± 1.57^a μg mL^-1.
